# Laboratory results reported in the kinase profiling compilation of Christmann-Franck et al. (2016).
# Experiments:
# Assay in all cases: radiometric filter-binding kinase assay
# AURKC (human) = AURKC (human) (UniProt Q9UQB9); conditions: ATP 5 µM
# CAMKK1 (human) = CAMKK1 (human) (UniProt Q8N5S9); conditions: ATP 20 µM
# CDK2 CCNA2 (human) = CDK2 CCNA2 (human) (UniProt P24941+P20248); conditions: compound 1.0 µM
# CHEK1 (human) = CHEK1 (human) (UniProt O14757); conditions: ATP 20 µM
# DYRK1A (human) = DYRK1A (human) (UniProt Q13627); conditions: ATP 50 µM
# MAPK11 (human) = MAPK11 (human) (UniProt Q15759); conditions: ATP 20 µM
# MAPK13 (human) = MAPK13 (human) (UniProt O15264); conditions: ATP 5 µM
# MAPKAPK3 (human) = MAPKAPK3 (human) (UniProt Q16644); conditions: ATP 20 µM
# MAPKAPK5 (human) = MAPKAPK5 (human) (UniProt Q8IW41); conditions: ATP 20 µM
# MELK (human) = MELK (human) (UniProt Q14680); conditions: ATP 50 µM
# MKNK1 (human) = MKNK1 (human) (UniProt Q9BUB5); conditions: ATP 50 µM
# MKNK2 (human) = MKNK2 (human) (UniProt Q9HBH9); conditions: ATP 50 µM
# MYLK (human) = MYLK (human) (UniProt Q15746)
# Sequence of MYLK (human) (Q15746 whole entry, looked up): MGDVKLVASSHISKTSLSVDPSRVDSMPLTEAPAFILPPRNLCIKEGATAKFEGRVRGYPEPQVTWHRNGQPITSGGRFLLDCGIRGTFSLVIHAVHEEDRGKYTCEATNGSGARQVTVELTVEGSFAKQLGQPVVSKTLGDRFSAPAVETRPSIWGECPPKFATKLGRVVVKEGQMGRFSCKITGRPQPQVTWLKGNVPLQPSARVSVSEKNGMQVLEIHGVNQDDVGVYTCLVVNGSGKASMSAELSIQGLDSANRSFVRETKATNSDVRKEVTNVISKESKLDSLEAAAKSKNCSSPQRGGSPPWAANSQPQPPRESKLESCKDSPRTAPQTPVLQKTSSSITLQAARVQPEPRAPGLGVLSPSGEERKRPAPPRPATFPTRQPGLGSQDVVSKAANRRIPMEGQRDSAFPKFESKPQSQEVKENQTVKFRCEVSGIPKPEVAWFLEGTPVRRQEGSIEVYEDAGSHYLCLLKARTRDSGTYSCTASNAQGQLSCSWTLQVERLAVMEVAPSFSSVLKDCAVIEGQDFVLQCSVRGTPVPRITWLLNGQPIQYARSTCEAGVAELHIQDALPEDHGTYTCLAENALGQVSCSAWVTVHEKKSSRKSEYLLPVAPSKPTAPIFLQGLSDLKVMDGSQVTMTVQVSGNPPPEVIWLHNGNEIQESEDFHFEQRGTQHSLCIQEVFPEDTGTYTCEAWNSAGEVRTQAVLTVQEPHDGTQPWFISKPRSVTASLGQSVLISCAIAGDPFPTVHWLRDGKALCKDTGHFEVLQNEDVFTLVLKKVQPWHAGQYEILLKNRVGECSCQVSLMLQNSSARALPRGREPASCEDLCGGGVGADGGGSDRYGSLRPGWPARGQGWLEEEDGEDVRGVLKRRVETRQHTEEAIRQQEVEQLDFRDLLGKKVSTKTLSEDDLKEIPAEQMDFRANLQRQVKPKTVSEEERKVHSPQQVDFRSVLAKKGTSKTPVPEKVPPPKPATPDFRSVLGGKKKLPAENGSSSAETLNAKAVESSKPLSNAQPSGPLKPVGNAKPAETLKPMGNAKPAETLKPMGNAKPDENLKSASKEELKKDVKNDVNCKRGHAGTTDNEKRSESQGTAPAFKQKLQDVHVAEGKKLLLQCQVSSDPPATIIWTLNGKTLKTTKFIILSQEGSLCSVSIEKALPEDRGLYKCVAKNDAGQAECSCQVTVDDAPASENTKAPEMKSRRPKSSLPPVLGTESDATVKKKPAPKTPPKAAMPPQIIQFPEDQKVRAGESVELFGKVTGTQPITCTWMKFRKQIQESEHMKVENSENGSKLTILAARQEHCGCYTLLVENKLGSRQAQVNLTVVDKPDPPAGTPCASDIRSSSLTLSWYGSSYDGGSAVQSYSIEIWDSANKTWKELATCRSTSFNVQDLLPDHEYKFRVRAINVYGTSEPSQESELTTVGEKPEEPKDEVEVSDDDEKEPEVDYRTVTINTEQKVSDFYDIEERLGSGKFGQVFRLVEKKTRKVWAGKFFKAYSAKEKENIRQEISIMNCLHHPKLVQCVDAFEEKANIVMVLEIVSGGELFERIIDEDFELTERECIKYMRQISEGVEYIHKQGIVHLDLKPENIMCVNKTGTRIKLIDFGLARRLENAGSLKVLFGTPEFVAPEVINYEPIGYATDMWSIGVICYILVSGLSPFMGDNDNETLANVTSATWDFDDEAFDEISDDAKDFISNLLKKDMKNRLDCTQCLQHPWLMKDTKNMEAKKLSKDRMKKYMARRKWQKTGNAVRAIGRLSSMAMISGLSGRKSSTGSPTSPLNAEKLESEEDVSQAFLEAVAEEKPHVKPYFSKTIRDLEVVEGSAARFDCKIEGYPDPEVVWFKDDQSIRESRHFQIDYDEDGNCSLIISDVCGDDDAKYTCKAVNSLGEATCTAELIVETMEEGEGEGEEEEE
# NEK6 (human) = NEK6 (human) (UniProt Q9HC98); conditions: ATP 50 µM
# NEK7 (human) = NEK7 (human) (UniProt Q8TDX7); conditions: ATP 20 µM
# PAK7 (human) = PAK7 (human) (UniProt Q9P286); conditions: ATP 20 µM
# PHKG1 or PHKG2 (human) = PHKG1 or PHKG2 (human) (UniProt P15735+Q16816); conditions: ATP 50 µM
# Sequence of PHKG1 or PHKG2 (human) (P15735 whole entry, looked up): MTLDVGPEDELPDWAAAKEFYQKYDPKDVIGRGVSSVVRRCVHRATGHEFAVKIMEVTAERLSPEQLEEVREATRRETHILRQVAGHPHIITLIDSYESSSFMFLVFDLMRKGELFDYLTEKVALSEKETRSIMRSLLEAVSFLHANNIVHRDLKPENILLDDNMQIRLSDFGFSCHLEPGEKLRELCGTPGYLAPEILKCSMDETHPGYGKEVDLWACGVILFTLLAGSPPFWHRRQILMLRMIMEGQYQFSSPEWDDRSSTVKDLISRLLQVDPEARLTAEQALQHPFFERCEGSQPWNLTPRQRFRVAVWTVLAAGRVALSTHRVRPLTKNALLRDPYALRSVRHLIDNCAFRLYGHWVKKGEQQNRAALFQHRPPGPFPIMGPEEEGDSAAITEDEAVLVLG
# Sequence of PHKG1 or PHKG2 (human) (Q16816 whole entry, looked up): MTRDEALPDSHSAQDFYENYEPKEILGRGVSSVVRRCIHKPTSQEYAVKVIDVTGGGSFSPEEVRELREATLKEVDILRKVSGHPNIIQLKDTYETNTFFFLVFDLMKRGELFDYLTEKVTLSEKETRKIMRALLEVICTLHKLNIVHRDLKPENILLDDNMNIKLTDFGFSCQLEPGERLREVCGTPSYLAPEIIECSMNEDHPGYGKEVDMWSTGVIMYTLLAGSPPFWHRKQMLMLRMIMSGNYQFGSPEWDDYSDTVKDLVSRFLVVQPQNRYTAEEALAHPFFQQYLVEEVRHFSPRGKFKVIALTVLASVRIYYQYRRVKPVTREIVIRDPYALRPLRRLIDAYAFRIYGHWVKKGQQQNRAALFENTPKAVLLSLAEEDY
# PIM2 (human) = PIM2 (human) (UniProt Q9P1W9); conditions: ATP 5 µM
# PRKCG (human) = PRKCG (human) (UniProt P05129); conditions: ATP 5 µM
# ROCK2 (human) = ROCK2 (human) (UniProt O75116); conditions: ATP 20 µM
# RPS6KA3 KD1 KD2 (human) = RPS6KA3 KD1 KD2 (human) (UniProt P51812); conditions: ATP 50 µM
# RPS6KA5 KD1 KD2 (human) = RPS6KA5 KD1 KD2 (human) (UniProt O75582); conditions: ATP 20 µM
# [1] = system: RPS6KB1 (human), P23443 [T412E]; conditions: ATP 20 µM
# Sequence of RPS6KB1 (human), P23443 [T412E] (P23443 whole entry T412E, looked up): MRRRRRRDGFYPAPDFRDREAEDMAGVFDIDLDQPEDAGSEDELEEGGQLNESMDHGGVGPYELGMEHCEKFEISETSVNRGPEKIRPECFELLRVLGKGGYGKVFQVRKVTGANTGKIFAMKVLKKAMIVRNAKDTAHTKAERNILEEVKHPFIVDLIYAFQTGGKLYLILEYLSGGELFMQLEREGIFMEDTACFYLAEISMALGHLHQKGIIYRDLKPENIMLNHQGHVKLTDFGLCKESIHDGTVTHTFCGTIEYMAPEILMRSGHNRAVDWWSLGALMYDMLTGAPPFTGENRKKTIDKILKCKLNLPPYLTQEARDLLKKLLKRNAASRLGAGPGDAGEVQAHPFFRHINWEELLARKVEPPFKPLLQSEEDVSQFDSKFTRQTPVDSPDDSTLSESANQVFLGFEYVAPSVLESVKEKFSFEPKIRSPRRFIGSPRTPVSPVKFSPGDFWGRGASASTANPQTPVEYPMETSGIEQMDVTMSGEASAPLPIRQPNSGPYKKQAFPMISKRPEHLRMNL
# SRPK1 (human) = SRPK1 (human) (UniProt Q96SB4); conditions: compound 1.0 µM; ATP 50 µM
# CSNK1D (human) = CSNK1D (human) (UniProt P48730)
# LCK (mouse) = conditions: ATP 50 µM
# MAPK9 (human) = MAPK9 (human) (UniProt P45984); conditions: ATP 20 µM
# Sequence of MAPK9 (human) (P45984 whole entry, looked up): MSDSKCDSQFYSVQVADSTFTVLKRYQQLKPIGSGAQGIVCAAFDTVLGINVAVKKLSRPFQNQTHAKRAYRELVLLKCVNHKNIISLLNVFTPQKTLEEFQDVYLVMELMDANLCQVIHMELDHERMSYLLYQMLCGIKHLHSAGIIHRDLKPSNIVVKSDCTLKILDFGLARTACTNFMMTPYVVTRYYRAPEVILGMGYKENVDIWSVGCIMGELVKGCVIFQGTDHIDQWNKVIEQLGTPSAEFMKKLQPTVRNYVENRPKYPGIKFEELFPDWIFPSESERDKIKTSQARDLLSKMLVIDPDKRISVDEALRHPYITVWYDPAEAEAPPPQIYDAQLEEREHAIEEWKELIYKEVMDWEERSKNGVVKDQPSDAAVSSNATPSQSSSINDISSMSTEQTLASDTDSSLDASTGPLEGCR
# MARK3 (human) = MARK3 (human) (UniProt P27448); conditions: ATP 5 µM
# Sequence of MARK3 (human) (P27448 whole entry, looked up): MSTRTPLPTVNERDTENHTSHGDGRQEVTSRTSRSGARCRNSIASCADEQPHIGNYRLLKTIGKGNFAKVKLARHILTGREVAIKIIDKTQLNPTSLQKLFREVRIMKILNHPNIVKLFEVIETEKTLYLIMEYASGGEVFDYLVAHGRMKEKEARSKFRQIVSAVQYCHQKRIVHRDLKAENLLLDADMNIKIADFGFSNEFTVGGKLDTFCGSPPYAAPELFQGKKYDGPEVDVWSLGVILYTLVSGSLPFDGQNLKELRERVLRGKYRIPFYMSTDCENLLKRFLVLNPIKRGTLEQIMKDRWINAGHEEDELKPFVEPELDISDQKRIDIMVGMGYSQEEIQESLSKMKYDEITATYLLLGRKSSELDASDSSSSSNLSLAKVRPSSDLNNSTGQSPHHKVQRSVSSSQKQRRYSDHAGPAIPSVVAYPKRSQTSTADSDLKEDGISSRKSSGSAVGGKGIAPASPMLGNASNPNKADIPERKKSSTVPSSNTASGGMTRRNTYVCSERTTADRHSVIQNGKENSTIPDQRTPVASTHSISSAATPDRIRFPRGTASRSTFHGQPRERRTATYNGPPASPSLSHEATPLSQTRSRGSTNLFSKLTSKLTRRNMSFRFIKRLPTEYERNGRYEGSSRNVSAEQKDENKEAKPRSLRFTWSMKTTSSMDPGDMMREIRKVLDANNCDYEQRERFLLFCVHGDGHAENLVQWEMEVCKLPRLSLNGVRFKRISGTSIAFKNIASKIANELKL
# PAK4 (human) = PAK4 (human) (UniProt O96013); conditions: ATP 5 µM
# Sequence of CAMKK1 (human) (Q8N5S9 whole entry, looked up): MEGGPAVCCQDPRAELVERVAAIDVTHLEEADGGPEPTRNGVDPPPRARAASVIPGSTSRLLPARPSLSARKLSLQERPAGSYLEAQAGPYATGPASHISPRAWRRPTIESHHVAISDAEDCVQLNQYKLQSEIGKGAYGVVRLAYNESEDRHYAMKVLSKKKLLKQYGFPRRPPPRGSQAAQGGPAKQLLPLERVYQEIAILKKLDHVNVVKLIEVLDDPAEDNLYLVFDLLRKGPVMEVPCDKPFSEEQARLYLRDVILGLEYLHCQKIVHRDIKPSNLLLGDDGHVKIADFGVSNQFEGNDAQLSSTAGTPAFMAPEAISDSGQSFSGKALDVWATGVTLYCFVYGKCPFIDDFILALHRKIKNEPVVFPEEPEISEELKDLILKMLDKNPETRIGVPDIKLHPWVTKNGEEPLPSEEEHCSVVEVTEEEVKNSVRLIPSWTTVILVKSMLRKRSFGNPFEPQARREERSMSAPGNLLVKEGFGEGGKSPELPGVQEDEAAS
smiles,measurement,setting,value
O=S(=O)(NCCNC/C=C/c1ccc(Br)cc1)c1cccc2cnccc12,residual activity,AURKC (human); compound 1.0 µM,73%
same,residual activity,CAMKK1 (human); compound 1.0 µM,102%
same,residual activity,CDK2 CCNA2 (human); ATP 20 µM,75%
same,residual activity,CHEK1 (human); compound 1.0 µM,71%
same,residual activity,DYRK1A (human); compound 1.0 µM,96%
same,residual activity,MAPK11 (human); compound 1.0 µM,91%
same,residual activity,MAPK13 (human); compound 1.0 µM,98%
same,residual activity,MAPKAPK3 (human); compound 1.0 µM,105%
same,residual activity,MAPKAPK5 (human); compound 1.0 µM,89%
same,residual activity,MELK (human); compound 1.0 µM,43%
same,residual activity,MKNK1 (human); compound 1.0 µM,90%
same,residual activity,MKNK2 (human); compound 1.0 µM,97%
same,residual activity,"MYLK (human); compound 1.0 µM, ATP 50 µM",91%
same,residual activity,NEK6 (human); compound 1.0 µM,104%
same,residual activity,NEK7 (human); compound 1.0 µM,99%
same,residual activity,PAK7 (human); compound 1.0 µM,84%
same,residual activity,PHKG1 or PHKG2 (human); compound 1.0 µM,76%
same,residual activity,PIM2 (human); compound 1.0 µM,91%
same,residual activity,PRKCG (human); compound 1.0 µM,55%
same,residual activity,ROCK2 (human); compound 1.0 µM,6%
same,residual activity,RPS6KA3 KD1 KD2 (human); compound 1.0 µM,55%
same,residual activity,RPS6KA5 KD1 KD2 (human); compound 1.0 µM,9%
same,residual activity,[1]; compound 1.0 µM,11%
same,residual activity,SRPK1 (human),93%
CO[C@H]1CC2CC[C@@H](C)[C@@](O)(O2)C(=O)C(=O)N2CCCC[C@H]2C(=O)OC([C@H](C)C[C@@H]2CC[C@@H](O)[C@H](OC)C2)CC(=O)[C@H](C)/C=C(\C)[C@@H](O)[C@@H](OC)C(=O)[C@H](C)C[C@H](C)/C=C/C=C/C=C/1C (some centres undefined),residual activity,AURKC (human); compound 1.0 µM,97%
same,residual activity,CAMKK1 (human); compound 1.0 µM,80%
same,residual activity,CDK2 CCNA2 (human); ATP 20 µM,92%
same,residual activity,CHEK1 (human); compound 1.0 µM,97%
same,residual activity,"CSNK1D (human); compound 1.0 µM, ATP 20 µM",88%
same,residual activity,DYRK1A (human); compound 1.0 µM,91%
same,residual activity,"LCK (mouse); compound 1.0 µM, accession and sequence are those of the human protein",79%
same,residual activity,MAPK11 (human); compound 1.0 µM,84%
same,residual activity,MAPK13 (human); compound 1.0 µM,92%
same,residual activity,MAPK9 (human); compound 1.0 µM,81%
same,residual activity,MAPKAPK3 (human); compound 1.0 µM,104%
same,residual activity,MAPKAPK5 (human); compound 1.0 µM,91%
same,residual activity,MARK3 (human); compound 1.0 µM,88%
same,residual activity,MELK (human); compound 1.0 µM,74%
same,residual activity,MKNK1 (human); compound 1.0 µM,83%
same,residual activity,MKNK2 (human); compound 1.0 µM,102%
same,residual activity,"MYLK (human); compound 1.0 µM, ATP 50 µM",107%
same,residual activity,NEK6 (human); compound 1.0 µM,95%
same,residual activity,NEK7 (human); compound 1.0 µM,102%
same,residual activity,PAK4 (human); compound 1.0 µM,81%
same,residual activity,PAK7 (human); compound 1.0 µM,89%
same,residual activity,PHKG1 or PHKG2 (human); compound 1.0 µM,95%
same,residual activity,PIM2 (human); compound 1.0 µM,117%
same,residual activity,PRKCG (human); compound 1.0 µM,92%
same,residual activity,ROCK2 (human); compound 1.0 µM,103%
same,residual activity,RPS6KA3 KD1 KD2 (human); compound 1.0 µM,97%
same,residual activity,RPS6KA5 KD1 KD2 (human); compound 1.0 µM,86%
same,residual activity,[1]; compound 1.0 µM,106%
same,residual activity,SRPK1 (human),84%
CN[C@@H]1C[C@@H]2O[C@@](C)([C@@H]1OC)n1c3ccccc3c3c4c(c5c6ccccc6n2c5c31)C(=O)N[C@@H]4O,residual activity,AURKC (human); compound 0.01 µM,71%
same,residual activity,CAMKK1 (human); compound 0.01 µM,58%
same,residual activity,CHEK1 (human); compound 0.01 µM,12%
same,residual activity,"CSNK1D (human); compound 0.01 µM, ATP 20 µM",96%
same,residual activity,DYRK1A (human); compound 0.01 µM,90%
same,residual activity,"LCK (mouse); compound 0.01 µM, accession and sequence are those of the human protein",50%
same,residual activity,MAPK11 (human); compound 0.01 µM,105%
same,residual activity,MAPK13 (human); compound 0.01 µM,94%
same,residual activity,MAPK9 (human); compound 0.01 µM,92%
same,residual activity,MAPKAPK3 (human); compound 0.01 µM,107%
same,residual activity,MAPKAPK5 (human); compound 0.01 µM,83%
same,residual activity,MARK3 (human); compound 0.01 µM,6%
same,residual activity,MELK (human); compound 0.01 µM,53%
same,residual activity,MKNK1 (human); compound 0.01 µM,85%
same,residual activity,MKNK2 (human); compound 0.01 µM,103%
same,residual activity,"MYLK (human); compound 0.01 µM, ATP 50 µM",83%
same,residual activity,NEK6 (human); compound 0.01 µM,104%
same,residual activity,NEK7 (human); compound 0.01 µM,99%
same,residual activity,PAK4 (human); compound 0.01 µM,33%
same,residual activity,PAK7 (human); compound 0.01 µM,36%
same,residual activity,PHKG1 or PHKG2 (human); compound 0.01 µM,5%
same,residual activity,PIM2 (human); compound 0.01 µM,73%
same,residual activity,PRKCG (human); compound 0.01 µM,78%
same,residual activity,ROCK2 (human); compound 0.01 µM,86%
same,residual activity,RPS6KA3 KD1 KD2 (human); compound 0.01 µM,29%
same,residual activity,RPS6KA5 KD1 KD2 (human); compound 0.01 µM,68%
same,residual activity,[1]; compound 0.01 µM,96%
COc1ccc2c(c1)=NC1=C(C)NCCC=21,residual activity,AURKC (human); compound 1.0 µM,99%
same,residual activity,CAMKK1 (human); compound 1.0 µM,92%
same,residual activity,CDK2 CCNA2 (human),100%
same,residual activity,CHEK1 (human); compound 1.0 µM,94%
same,residual activity,CSNK1D (human); compound 1.0 µM,65%
same,residual activity,DYRK1A (human); compound 1.0 µM,29%
same,residual activity,LCK (mouse); compound 1.0 µM,81%
same,residual activity,MAPK11 (human); compound 1.0 µM,92%
same,residual activity,MAPK13 (human); compound 1.0 µM,92%
same,residual activity,MAPK9 (human); compound 1.0 µM,86%
same,residual activity,MAPKAPK3 (human); compound 1.0 µM,97%
same,residual activity,MAPKAPK5 (human); compound 1.0 µM,74%
same,residual activity,MARK3 (human); compound 1.0 µM,110%
same,residual activity,MELK (human); compound 1.0 µM,95%
same,residual activity,MKNK1 (human); compound 1.0 µM,80%
same,residual activity,MKNK2 (human); compound 1.0 µM,92%
same,residual activity,MYLK (human); compound 1.0 µM,112%
same,residual activity,NEK6 (human); compound 1.0 µM,94%
same,residual activity,NEK7 (human); compound 1.0 µM,107%
same,residual activity,PAK4 (human); compound 1.0 µM,90%
same,residual activity,PAK7 (human); compound 1.0 µM,84%
same,residual activity,PHKG1 or PHKG2 (human); compound 1.0 µM,84%
same,residual activity,PIM2 (human); compound 1.0 µM,117%
same,residual activity,PRKCG (human); compound 1.0 µM,84%
same,residual activity,ROCK2 (human); compound 1.0 µM,79%
same,residual activity,RPS6KA3 KD1 KD2 (human); compound 1.0 µM,112%
same,residual activity,RPS6KA5 KD1 KD2 (human); compound 1.0 µM,94%
same,residual activity,[1]; compound 1.0 µM,93%
same,residual activity,SRPK1 (human),89%
